Assay results reported in patent US7395112B2, “Method and apparatus for treating tumors using low strength electric fields” (priority 2002, dated 2008).

System: CT-26 colon carcinoma
Assay: LEF with chemotherapy (LEFCT-EC) in mice bearing 5 mm CT-26 tumors
Type: in vivo, BALB/C mice
Experimental: Mice: BALB/C male mice were obtained from the breeding colony of Tel-Aviv University, Israel. Mice were used at 8-12 weeks of age. Animal care and experimentation were performed in accordance with the Tel-Aviv University guidelines.
Tumor: Colon carcinoma tumors were grown in mice with CT-26, a metastatic colon carcinoma cell line induced in a BALB/c mouse by chemical carcinogenesis. Cells were cultured in Dulbecco's modified Eagle's medium (DMEM) supplemented with 100 U/ml penicillin, 100 μg/ml streptomycin, 2 mM L-glutamine; 1 mM sodium pyruvate; 1% non-essential amino acid solution; 10% heat-inactivated fetal calf serum. Cultures were maintained at 37° C. in a humidified incubator with a 5% CO2 atmosphere.
Tumor cell inoculation: Mice were inoculated intracutaneously with 10^5 CT-26 cells suspended in 100 μL PBS into the low lateral side of the back. Local tumor growth was determined by measuring three mutually orthogonal tumor diameters with a caliper. The volume of tumor was calculated using the formula: Vol=D1×D2×D3×π/6, where D1, D2, D3 are three mutually orthogonal tumor diameters.
Low-strength electric field stimulation: To subject tumors to LEFs, stainless steel needles were used as electrodes. Tumors 5 mm in diameter (about 65 mm^3) were transfixed by electrode needles, with one cathode in the center of the tumor and three or four peripheral anodes. The electrodes were connected to an electric pulse generator and to an oscilloscope. Pulsed LEFs with a repetition frequency of 500 Hz and a pulse width of 180 μs were applied at 20, 40, 60 and 70 V/cm for a duration 12 min or 20 min. The electric pulses were administered 2-4 min following chemotherapeutic drug administration. Mice were anesthetized 10 min before the procedure.
Chemotherapeutic agents: Bleomycin (Sigma Israel Chemicals Ltd., Israel; Megapharm Ltd., Israel) was kept at a temperature of 2-8° C., and was dissolved in pyrogen-free PBS to a concentration enabling dosages of 50 U/kg body weight prior to use. BCNU was administered at a dosage of 35 mg/kg body weight, and 5-FU (Abic, Israel) was used at a dose of 100 mg/kg body weight.
Anesthesia: Mice were anesthetized using an anesthetic cocktail comprising a dose of imalgen at 100 mg/kg body weight and xylazine hydrochloride at 6.25 mg/kg body weight dissolved in PBS injected intraperitoneally in a volume of 0.25 ml per mouse 10 min prior to LEF treatment.
Statistical analysis: Survival times (Kaplan-Meir test), survival comparisons between groups (Mantel-Cox test), and tumor volume differences between groups were plotted using StatSoft “Statistica” statistical software.
Effect of LEF duration and strength on potentiation of bleomycin for treatment of colon carcinoma: In order to determine the optimal LEFCT-EC/bleomycin therapy for treatment of colon cancer, mice bearing CT-26 tumors were treated with LEFs of 40 V/cm for 12 min, and 20 V/cm for 12 or 20 min with or without administration of bleomycin, and survival was analyzed.

bleomycin was tested, and the “survival with bleomycin + LEF compared with LEF alone” value (LEF 40 V/cm 12 min, 20 V/cm 12 or 20 min, all combinations tested) was “greatly enhanced”, the cure rate (LEFCT-EC: drug + LEF 40 V/cm 12 min, 5 mm tumors) was 33% and the “tumor size with drug + LEF relative to drug only” value (after 21 days) was “less than half the size”. For the same substance, the survival rate (bleomycin intratumoral + LEF 40 V/cm 12 min, after 60 days, unchanged until day 120) was 33% and the “time after which half the mice died” value (drug alone, no LEF, intratumoral injection (5-FU intratumoral or intravenous), 5 mm tumors) was “about 51 days”.
